Read-outs that look alike come from different tables or passages of the source. Values belong to the compound of their own block, whether it stands above or below them.
Experiments:
RAW 264.7 cells [1] = tested on: RAW 264.7 cells
Protocol: (§1) A murine macrophage cell line RAW264.7 (BCRC No. 60001) was purchased from the Bioresources Collection and Research Center (BCRC) of the Food Industry Research and Development Institute (Hsinchu, Taiwan). Cells were cultured in plastic dishes containing Dulbecco’s Modified Eagle Medium (DMEM, Sigma, St. Louis, MO, USA) supplemented with 10% fetal bovine serum (FBS, Sigma, USA) in a CO2 incubator (5% CO2 in air) at 37°C and subcultured every 3 days at a dilution of 1:5 using 0.05% trypsin–0.02% EDTA in Ca^2+-, Mg^2+- free phosphate-buffered saline (DPBS).
(§2) Cells (2 × 10^5) were cultured in 96-well plate containing DMEM supplemented with 10% FBS for 1 day to become nearly confluent. Then cells were cultured with samples in the presence of 100 ng/mL LPS for 24 h. After that, the cells were washed twice with DPBS and incubated with 100 μL of 0.5 mg/mL MTT for 2 h at 37 °C testing for cell viability. The medium was then discarded and 100 μL dimethyl sulfoxide (DMSO) was added. After 30-min incubation, absorbance at 570 nm was read using a microplate reader (Molecular Devices, Sunnyvale, CA, USA).

[2] = tested on: LPS-induced iNOS-dependent NO production in RAW 264.7 cells; test: Inhibition of LPS-induced iNOS-dependent NO production (Griess nitrite assay); format: cell-based, murine; conditions: RAW 264.7, 100 ng/mL LPS, 24 h; for NO level: nitrite by Griess, in µM (unit assumed); for inhibition at 12.5 µM / inhibition at 25 µM / inhibition at 50 µM / IC50 / inhibition at 100 µM: Mus musculus, RAW264.7; for inhibition at 12.5 µM: read-out: NO inhibition (% of control); for inhibition at 25 µM / inhibition at 50 µM / inhibition at 100 µM: read-out: NO inhibition (% of control) (converted)
From the text: The isolated compounds 1–9 were subjected into the examination of their effects on LPS-induced iNOS-dependent NO production in RAW 264.7 cells. […] The inhibitory effects of 1, 4 and 9 were less obvious. […] Among the tested compounds, 2, and 5–8 belonged to the ent-kaurane diterpenoids noted for the occurrence in the Annona species.
NO production was indirectly assessed by measuring the nitrite levels in the cultured media and serum determined by a colorimetric method based on the Griess reaction. The cells were incubated with a test sample in the presence of LPS (100 ng/mL) at 37 °C for 24 h. Then, cells were dispensed into 96-well plates, and 100 μL of each supernatant was mixed with the same volume of Griess reagent (1% sulfanilamide, 0.1% naphthyl ethylenediamine dihydrochloride, and 5% phosphoric acid) and incubated at room temperature for 10 min, the absorbance was measured at 540 nm with a Micro-Reader (Molecular Devices). By using sodium nitrite to generate a standard curve, the concentration of nitrite was measured form absorbance at 540 nm.
Experimental results were presented as the mean ± standard deviation (SD) of three parallel measurements. Statistical comparisons were made by Student’s t-test. IC50 values were estimated using a non-linear regression algorithm (SigmaPlot 8.0; SPSS Inc. Chicago, IL, USA). Statistical significance is expressed as * p < 0.05, ** p < 0.01, and *** p < 0.001.

RAW 264.7 cells [3] = test: Cell viability (MTT) in the presence of LPS; conditions: RAW 264.7, 100 ng/mL LPS, 24 h; for Cell viability (% of control): MTT; for Cell toxicity (in words): 12.5–100 μM
Protocol: as §1, §2

[4] = tested on: LPS-induced RAW264.7 macrophages; set-up: method as in PMID 21211951; conditions: cited from earlier work
macrophages = tested on: macrophages; set-up: method as in PMID 23333629; conditions: by interfering with the activation of TAK1 and Akt, preventing NF-κB activation; cited from earlier work
platelet aggregation = tested on: platelet aggregation; set-up: method as in PMID 12398544; conditions: isolated from the stems of A. squamosa; cited from earlier work

Structure (SMILES): C=C(C)C(CC[C@@H](CO)[C@H]1CC[C@@]2(C)C3CCC4C(C)(C)[C@@H](O)[C@H](O)C[C@@]45C[C@@]35CC[C@]12C)C(C)C (stereo partly shown) [Compound 1, annonaretin A]
Cell viability (% of control) (RAW 264.7 cells [1]; 12.5 µM): 88.0 ± 1.5 % of control
Cell viability (% of control) (RAW 264.7 cells [1]; 25 µM): 81.2 ± 1.8 % of control
Cell viability (% of control) (RAW 264.7 cells [1]; 50 µM): 73.0 ± 3.6 % of control
Cell viability (% of control) (RAW 264.7 cells [1]; 100 µM): 66.9 ± 5.5 % of control
NO level ([2]; 12.5 μM): 36.6 ± 1.9
NO level ([2]; 25 μM): 33.5 ± 0.9
inhibition at 12.5 µM ([2]; 12.5 μM): 19.3 ± 4.2%
inhibition at 25 µM ([2]; 25 μM): 26.2%
Inhibitory effect on NO production (in words) [2]: less obvious

IC50 [2]: 50 ± 0.3 µM
Structure (SMILES): C=C1C[C@@]23CC[C@H]4[C@@](C)(CCC[C@@]4(C)C(=O)O)[C@@H]2CC[C@@H]1C3 [Compound 2, kaurenoic acid]
Cell viability (% of control) (RAW 264.7 cells [3]; 12.5 μM): 98.0 ± 2.2 % of control
Cell viability (% of control) (RAW 264.7 cells [3]; 25 μM): 91.0 ± 3.6 % of control
Cell viability (% of control) (RAW 264.7 cells [3]; 50 μM): 82.9 ± 1.2 % of control
Cell viability (% of control) (RAW 264.7 cells [3]; 100 μM): 65.7 ± 8.6 % of control
Cell toxicity (in words) (RAW 264.7 cells [3]): Some cell toxicity was observed
NO level ([2]; 12.5 μM): 34.3 ± 4.7
NO level ([2]; 25 μM): 35.1 ± 1.2
NO level ([2]; 50 μM): 22.7 ± 0.5
inhibition at 12.5 µM ([2]; 12.5 μM): 24.5 ± 10.2%
inhibition at 25 µM ([2]; 25 μM): 22.7%
inhibition at 50 µM ([2]; 50 μM): 50%
Inhibition of NO production, prostaglandin E2 release, cyclooxygenase-2 and inducible nitric oxide synthase expression (in words) [4]: inhibit NO production

IC50 [2]: 99.8 ± 0.4 µM
Structure (SMILES): CC1(C)CC[C@]2(C)CC=C3[C@]4(C)CC[C@H]5C(C)(C)[C@@H](O)CC[C@]5(C)[C@H]4CC[C@@]3(C)[C@@H]2C1 [Compound 3, taraxerol]
Cell viability (% of control) (RAW 264.7 cells [3]; 12.5 μM): 93.5 ± 1.8 % of control
Cell viability (% of control) (RAW 264.7 cells [3]; 25 μM): 92.6 ± 3.1 % of control
Cell viability (% of control) (RAW 264.7 cells [3]; 50 μM): 88.7 ± 1.8 % of control
Cell viability (% of control) (RAW 264.7 cells [3]; 100 μM): 81.4 ± 2.3 % of control
NO level ([2]; 12.5 μM): 38.5 ± 2.3
NO level ([2]; 25 μM): 39.5 ± 0.6
NO level ([2]; 50 μM): 35.6 ± 0.9
NO level ([2]; 100 μM): 22.6 ± 0.4
inhibition at 12.5 µM ([2]; 12.5 μM): 15.2 ± 5%
inhibition at 25 µM ([2]; 25 μM): 13.1%
inhibition at 50 µM ([2]; 50 μM): 21.6%
inhibition at 100 µM ([2]; 100 μM): 50.1%
Expression of proinflammatory mediators (in words) (macrophages): downregulate the expression of proinflammatory mediators

Structure (SMILES): CC[C@H](CC[C@@H](C)[C@H]1CC[C@H]2[C@@H]3CC=C4C[C@@H](O)CC[C@]4(C)[C@H]3CC[C@]12C)C(C)C [Compound 4, β-sitosterol]
Cell viability (% of control) (RAW 264.7 cells [3]; 12.5 μM): 82.8 ± 2.7 % of control
Cell viability (% of control) (RAW 264.7 cells [3]; 25 μM): 80.7 ± 3.8 % of control
Cell viability (% of control) (RAW 264.7 cells [3]; 50 μM): 65.3 ± 2.3 % of control
Cell viability (% of control) (RAW 264.7 cells [3]; 100 μM): 55.8 ± 2.7 % of control
Cell toxicity (in words) (RAW 264.7 cells [3]): Some cell toxicity was observed
NO level ([2]; 12.5 μM): 38.4 ± 0.7
NO level ([2]; 25 μM): 38.6 ± 3.3
inhibition at 12.5 µM ([2]; 12.5 μM): 15.5 ± 1.5%
inhibition at 25 µM ([2]; 25 μM): 15.1%
Inhibitory effect on NO production (in words) [2]: less obvious

IC50 [2]: 48.6 ± 1.2 µM
Structure (SMILES): C[C@@]12CCC[C@](C)(C=O)C1CCC13CC(CCC12)C(C(=O)O)C3 (stereo partly drawn) [Compound 5, 16α-hydro-19-al-ent-kauran-17-oic acid]
Cell viability (% of control) (RAW 264.7 cells [3]; 12.5 μM): 98.9 ± 5.2 % of control
Cell viability (% of control) (RAW 264.7 cells [3]; 25 μM): 96.5 ± 9.2 % of control
Cell viability (% of control) (RAW 264.7 cells [3]; 50 μM): 95.9 ± 8.6 % of control
Cell viability (% of control) (RAW 264.7 cells [3]; 100 μM): 80.2 ± 5.7 % of control
NO level ([2]; 12.5 μM): 38.3 ± 1.3
NO level ([2]; 25 μM): 33.1 ± 1.0
NO level ([2]; 50 μM): 22.1 ± 1.5
NO level ([2]; 100 μM): 14.8 ± 0.7
inhibition at 12.5 µM ([2]; 12.5 μM): 15.5 ± 2.8%
inhibition at 25 µM ([2]; 25 μM): 27.1%
inhibition at 50 µM ([2]; 50 μM): 51.4%
inhibition at 100 µM ([2]; 100 μM): 67.3%
Anti-platelet aggregation activity (in words) (platelet aggregation): exhibit anti-platelet aggregation activity

Structure (SMILES): CC[C@H](CC[C@@H](C)[C@H]1CC[C@H]2[C@@H]3C[C@@H](O)C4=CC(=O)CC[C@]4(C)[C@H]3CC[C@]12C)C(C)C [Compound 6, 6β-hydroxystigmast-4-en-3-one]
Cell viability (% of control) (RAW 264.7 cells [3]; 12.5 μM): 94.8 ± 3.1 % of control
Cell viability (% of control) (RAW 264.7 cells [3]; 25 μM): 83.7 ± 3.5 % of control
Cell viability (% of control) (RAW 264.7 cells [3]; 50 μM): 83.5 ± 3.0 % of control
Cell viability (% of control) (RAW 264.7 cells [3]; 100 μM): 81.3 ± 2.8 % of control
NO level ([2]; 12.5 μM): 37.0 ± 1.8
NO level ([2]; 25 μM): 33.1 ± 2.4
NO level ([2]; 50 μM): 22.9 ± 1.1
NO level ([2]; 100 μM): 15.1 ± 0.3
inhibition at 12.5 µM ([2]; 12.5 μM): 18.5 ± 4%
inhibition at 25 µM ([2]; 25 μM): 27.1%
inhibition at 50 µM ([2]; 50 μM): 49.5%
inhibition at 100 µM ([2]; 100 μM): 66.7%
IC50 [2]: 51.5 ± 0.5 µM

Structure (SMILES): CC(=O)OCC1CC23CCC4[C@@](C)(CCC[C@]4(C)C(=O)O)C2CCC1C3 (stereo partly drawn) [Compound 7, 17-acetoxy-16β-ent-kauran-19-oic acid]
Cell viability (% of control) (RAW 264.7 cells [3]; 12.5 μM): 98.6 ± 3.1 % of control
Cell viability (% of control) (RAW 264.7 cells [3]; 25 μM): 93.6 ± 4.0 % of control
Cell viability (% of control) (RAW 264.7 cells [3]; 50 μM): 92.5 ± 2.8 % of control
Cell viability (% of control) (RAW 264.7 cells [3]; 100 μM): 83.7 ± 1.6 % of control
NO level ([2]; 12.5 μM): 42.6 ± 0.7
NO level ([2]; 25 μM): 40.6 ± 2.8
NO level ([2]; 50 μM): 23.7 ± 0.2
NO level ([2]; 100 μM): 14.3 ± 0.3
inhibition at 12.5 µM ([2]; 12.5 μM): 6.2 ± 1.5%
inhibition at 25 µM ([2]; 25 μM): 10.6%
inhibition at 50 µM ([2]; 50 μM): 47.7%
inhibition at 100 µM ([2]; 100 μM): 68.5%
IC50 [2]: 55.5 ± 0.3 µM

IC50 [2]: 54.5 ± 0.8 µM
melting point: 120 to 121 °C
Structure (SMILES): C[C@@]12CCC[C@](C)(C(=O)O)C1CCC13CC(CCC12)C(C(=O)O)C3 (stereo partly drawn) [Compound 8, 16α-hydro-ent-kauran-17,19-dioic acid]
Cell viability (% of control) (RAW 264.7 cells [3]; 12.5 μM): 98.4 ± 3.2 % of control
Cell viability (% of control) (RAW 264.7 cells [3]; 25 μM): 94.0 ± 2.6 % of control
Cell viability (% of control) (RAW 264.7 cells [3]; 50 μM): 88.6 ± 2.6 % of control
Cell viability (% of control) (RAW 264.7 cells [3]; 100 μM): 82.4 ± 1.2 % of control
NO level ([2]; 12.5 μM): 39.8 ± 1.2
NO level ([2]; 25 μM): 35.4 ± 0.8
NO level ([2]; 50 μM): 23.5 ± 0.9
NO level ([2]; 100 μM): 14.4 ± 0.3
inhibition at 12.5 µM ([2]; 12.5 μM): 12.3 ± 2.6%
inhibition at 25 µM ([2]; 25 μM): 21.9%
inhibition at 50 µM ([2]; 50 μM): 48.2%
inhibition at 100 µM ([2]; 100 μM): 68.3%

Structure (SMILES): COc1ccc([C@@H]2CC(=O)c3ccc(OC)cc3O2)cc1 [Compound 9, (2S)-di-O-methylquiritigenin]
Cell viability (% of control) (RAW 264.7 cells [3]; 12.5 μM): 99.9 ± 4.8 % of control
Cell viability (% of control) (RAW 264.7 cells [3]; 25 μM): 90.0 ± 1.6 % of control
Cell viability (% of control) (RAW 264.7 cells [3]; 50 μM): 82.6 ± 2.7 % of control
Cell viability (% of control) (RAW 264.7 cells [3]; 100 μM): 76.2 ± 1.1 % of control
Cell toxicity (in words) (RAW 264.7 cells [3]): Some cell toxicity was observed
NO level ([2]; 12.5 μM): 42.0 ± 1.2
NO level ([2]; 25 μM): 40.4 ± 0.7
NO level ([2]; 50 μM): 25.9 ± 2.3
inhibition at 12.5 µM ([2]; 12.5 μM): 7.5 ± 2.7%
inhibition at 25 µM ([2]; 25 μM): 11%
inhibition at 50 µM ([2]; 50 μM): 42.9%
Inhibitory effect on NO production (in words) [2]: less obvious

— paper PMC6270106, “Chemical Constituents from the Leaves of Annona reticulata and Their Inhibitory Effects on NO Production” (Molecules, 2013)
